Results: patent publication US6320051A, “Quinolones used as MRS inhibitors and bactericides” (SmithKline Beecham plc, priority 1998, dated 2001)
In brackets after ≈: the same amount, converted by molar mass. Structures can show the parent of a compound that is named as a salt. Where two headings read alike, the source gives them in different places.

Columns and labels:
M. Catarrhalis = experiment: Antibacterial activity, standard MIC assay modified by inclusion of cyclodextrin; assay type: cell-based; conditions: Moraxella catarrhalis; MIC assay with cyclodextrin; range over the listed Examples; read-out: MIC against M. Catarrhalis
Procedure: (§1) Compounds of the present invention were assayed for antibacterial activity against a range of pathogenic organisms (strains of S aureus, S pneumoniae, E faecalis, H influenzae and M catarrhalis) in a standard MIC assay modified by the inclusion of cyclodextrin, to assist with solubility.

[1] = test system: S. aureus, S. pneunmoniae, and E. faecalis; experiment: as above; assay type: cell-based; conditions: read-out: MIC against some strains of S. aureus, S. pneumoniae and E. faecalis
Procedure: as §1

[2] = test system: isoleucyl t-RNA synthetase; conditions: background of the invention; cited from earlier work
H. influenzae = experiment: Antibacterial activity, standard MIC assay modified by inclusion of cyclodextrin; assay type: cell-based; conditions: MIC assay with cyclodextrin
Procedure: as §1

[3] = some strains of the organisms, MIC assay with cyclodextrin

Structure (SMILES) | MIC (M. Catarrhalis) [µg/mL] | MIC [1] [µg/mL] | MIC [1, 3] [µg/mL] | inhibition of isoleucyl t-RNA synthetase [2] | antibacterial activity against H. influenzae (H. influenzae)
Cl.O=c1cc(NCCCNCc2ccc(Cl)c(Cl)c2)[nH]c2ccccc12 [Example 18, 2-[3-(3,4-Dichlorobenzylamino)prop-1-ylamino]-1H-quinolin-4-one hydrochloride] | 2 to 64 | < 1 | – | – | –
Nc1c(Br)cc(Br)cc1CNCCCNc1cc(=O)c2ccccc2[nH]1 [Example 77, 2-[3-(2-Amino-3,5-dibromobenzylamino)prop-1-ylamino]-1H-quinolin-4-one] | 2 to 64 (≈ 4.16 to 133 µM) | – | < 1 | – | –
O=c1cc(NC[C@H]2CCC[C@@H]2NCc2cc(Br)cc(Br)c2)[nH]c2ccccc12 [Example 73, 2-{[(1R,2S)-2-(3,5-Dibromobenzylamino)cyclopentyl-methyl]amino}-1H-quinolin-4-one] | 2 to 64 (≈ 3.96 to 127 µM) | – | < 1 | – | –
CC(C)(C)OC(=O)COc1c(Cl)cc(Cl)cc1CNCCCNc1cc(=O)c2ccccc2[nH]1 [Example 67, 2-[3-(2-tert-Butoxycarbonylmethoxy-3,5-dichlorobenzylamino)prop-1-ylamino]-1H-quinolin-4-one] | 2 to 64 (≈ 3.95 to 126 µM) | – | < 1 | – | –
O=c1cc(NCCCNCc2cc3c(Cl)cc(Cl)cc3[nH]2)[nH]c2ccccc12 [Example 76, 2-[3-(4,6-Dichloroindol-2-ylmethylamino)prop-1-ylamino]-1H-quinolin-4-one] | 2 to 64 (≈ 4.82 to 154 µM) | – | < 1 | – | –
C=CCOc1c(Cl)cc(Cl)cc1CNCCCNc1cc(=O)c2ccccc2[nH]1 [Example 68, 2-[3-(2-Allyloxy-3,5-dichlorobenzylamino)prop-1-ylamino]-1H-quinolin-4-one] | 2 to 64 (≈ 4.63 to 148 µM) | – | < 1 | – | –
O=c1cc(NCCCNCc2cc(Cl)cc(Cl)c2Cl)[nH]c2ccccc12 [Example 45, 2-[3-(2,3,5-Trichliorobenzylamino)prop-1-ylamino]-1H-quinolin-4-one dihydrochloride] | 2 to 64 | – | < 1 | – | –
O=c1cc(NCCCNCc2cc(Cl)cc(Cl)c2OCc2ccccc2)[nH]c2ccccc12 [Example 39, 2-[3-(2-Benzyloxy-3,5-dichlorobenzylamino)prop-1-ylamino]-1H-quinolin-4-one] | 2 to 64 (≈ 4.15 to 133 µM) | – | < 1 | – | –
O=c1cc(NC[C@H]2CCC[C@@H]2NCc2ccc(Cl)c(Cl)c2)[nH]c2ccccc12 [Example 71, 2-{[(1R,2S)-2-(3,4-Dichlorobenzylamino)cyclopentylmethyl]amino}-1H-quinolin-4-one] | 2 to 64 (≈ 4.8 to 154 µM) | < 1 | – | – | –
O=c1cc(NCCCNCc2cc(Br)c(Br)s2)[nH]c2ccccc12 [Example 37] | 2 to 64 (≈ 4.24 to 136 µM) | – | < 1 | – | –
Cc1c(Br)cc(CNCCCNc2cc(=O)c3ccccc3[nH]2)cc1Br [Example 41, 2-[3-(3,5-Dibromo-4-methylbenzylamino)prop-1-ylamino]-1H-quinolin-4-one] | 2 to 64 (≈ 4.17 to 134 µM) | – | < 1 | – | –
O=c1cc(NCCCNC2CCc3c(Cl)sc(Cl)c32)[nH]c2ccccc12 (stereo not shown) [Example 47, 2-[3-(1,3-Dichloro-5,6-dihydro-4H-cyclopenta[c]thiophen-4-ylamino]prop-1-ylamino}-1H-quinolin-4-one] | 2 to 64 (≈ 4.9 to 157 µM) | – | < 1 | – | –
CCOc1c(Br)cc(Br)cc1CNCCCNc1cc(=O)c2ccccc2[nH]1.Cl.Cl [Example 46, 2-[3-(3,5-Dibromo-2-ethoxybenzylamino)prop-1-ylamino]-1H-quinolin-4-one dihydrochloride] | 2 to 64 | – | < 1 | – | –
CCOc1c(Br)cc(Br)cc1CN[C@H]1CCC[C@@H]1CNc1cc(=O)c2ccccc2[nH]1 [Example 75, 2-{[(1R,2S)-2-(3,5-Dibromo-2-ethoxybenzylamino)cyclopentyl-methyl]amino}-1H-quinolin-4-one] | 2 to 64 (≈ 3.64 to 117 µM) | – | < 1 | – | –
O=c1cc(NCCCNC2CCCc3c2cc(Cl)c(Cl)c3Cl)[nH]c2ccccc12 (stereo not shown) [Example 53, 2-[3-(5,6,7-Trichloro-1,2,3,4-tetrahydronaphth-1-ylamino)prop-1-ylamino]-1H-quinolin-4-one] | 2 to 64 (≈ 4.44 to 142 µM) | < 1 | – | – | –
O=c1cc(NCCCNCc2cc(Br)cc(I)c2)[nH]c2ccccc12 [Example 43, 2-[3-(3-Bromo-5-iodobenzylamino)prop-1-ylamino]-1H-quinolin-4-one] | 2 to 64 (≈ 3.9 to 125 µM) | – | < 1 | – | –
O=c1cc(NCCCNC2CCc3c(Cl)cc(Cl)cc32)[nH]c2ccccc12 (stereo not shown) [Example 55, 2-[3-(4,6-Dichloroindan-1-ylamino)prop-1-ylamino]-1H-quinolin-4-one] | 2 to 64 (≈ 4.97 to 159 µM) | < 1 | – | – | –
O=c1cc(NCCCNC2CCCc3c(Cl)cc(Cl)cc32)[nH]c2ccccc12 (stereo not shown) [Example 51, 2-[3-(5,7-Dichloro-1,2,3,4-tetrahydronaphth-1-ylamino)prop-1-ylamino]-1H-quinolin-4-one] | 2 to 64 (≈ 4.8 to 154 µM) | < 1 | – | – | –
C/C(=C\C(=O)OCCCCCCCCC(=O)O)C[C@@H]1OC[C@H](C[C@@H]2O[C@H]2[C@@H](C)[C@H](C)O)[C@@H](O)[C@H]1O [Mupirocin] | – | – | – | inhibitor | –
O=c1cc(NCCCNCc2cc(Br)cc(Br)c2)[nH]c2ccccc12 [Example 40, 2-[3-(3,5-Dibromobenzylamino)prop-1-ylamino]-1H-quinolin-4-one] | 2 to 64 (≈ 4.3 to 138 µM) | – | < 1 | – | –
O=c1cc(NCCCNCc2cc(Br)c(Br)c(Br)c2)[nH]c2ccccc12 [Example 42, 2-[3-(3,4,5-Tribromobenzylamino)prop-1-ylamino]-1H-quinolin-4-one] | 2 to 64 (≈ 3.68 to 118 µM) | – | < 1 | – | –
O=c1cc(NCCCNCc2cc(I)cc(I)c2)[nH]c2ccccc12 [Example 36, 2-[3-(3,5-Diiodobenzylamino)prop-1-ylamino]-1H-quinolin-4-one] | 2 to 64 (≈ 3.58 to 114 µM) | – | < 1 | – | –
O=c1cc(NC[C@H]2CCC[C@@H]2NCc2cc(Br)c(Br)s2)[nH]c2ccccc12 [Example 74, 2-{[(1R,2S)-2-(4,5-Dibromo-2-thiophenemethylamino)-cyclopentylmethyl]amino}-1H-quinolin-4-one] | 2 to 64 (≈ 3.91 to 125 µM) | – | < 1 | – | –
O=c1cc(NCC2CCCC2NCc2ccc(Cl)c(Cl)c2)[nH]c2ccccc12 (stereo not shown) [Example 60, 2-{[2-(3,4-Dichlorobenzylamino)cyclopentyl]methylamino}-1H-quinolin-4-one] | 2 to 64 (≈ 4.8 to 154 µM) | < 1 | – | – | –
O=c1cc(NCCCNC2CCCc3c2[nH]c2ccccc32)[nH]c2ccccc12 (stereo not shown) [Example 64, 2-[3-(2,3,4,9-Tetrahydro-1H-carbazol-1-ylamino)prop-1-ylamino]-1H-quinolin-4-one] | – | – | – | – | active
O=c1cc(NCCCNCc2cc(Cl)cc(Cl)c2OCCc2ccccc2)[nH]c2ccccc12 [Example 69, 2-[3-(3,5-Dichloro-2-phenethoxybenzylamino)propylamino]-1H-quinolin-4-one] | 2 to 64 (≈ 4.03 to 129 µM) | – | < 1 | – | –
O=c1cc(NCCCNCc2ccc(Cl)c(C(F)(F)F)c2)[nH]c2ccccc12 [Example 38, 2-[3-(4-Chloro-3-trifluoromethylbenzylamino)prop-1-ylamino]-1H-quinolin-4-one] | 2 to 64 (≈ 4.88 to 156 µM) | – | < 1 | – | –
